Measurements reported in patent publication US20160113921A1, “COMBINATION THERAPY COMPRISING OXAZOLIDINONE-QUINOLONES FOR USE IN TREATING BACTERIAL INFECTIONS” (MORPHOCHEM AKTIENGESELLSCHAFT FÜR KOMBINATORISCHE CHEMIE, priority 2013, published 2016).
≈ marks a conversion by molar mass, not a printed value. Where “and” joins values, the source holds several entries; their conditions need not be identical. Identical values can stand only once.

Columns and labels:
Format in all cases: cell-based
E. coli NRZ-00302 = assay: Time-kill curves; conditions: E. coli NRZ00302; for growth- and kill rates k ('+' = growth, unmarked = kill rate): first four hours
E. coli NRZ-00401 = assay: Time-kill curves; conditions: E. coli NRZ00401; for growth- and kill rates k ('+' = growth, unmarked = kill rate): first four hours
[1] = system: S. aureus DSM 11823, clone 16 (MSSA, quinolone-resistant); assay: microbe, parasite or virus in culture; conditions: Staphylococcus aureus
Method: (§1) MIC-testing was done immediately after preparation of the dilutions. All tests were done in duplicate and repeated once on a separate occasion.
(§2) 1 mL of the bacterial suspension was transferred into a tube containing 10 mL CAMHB and was vortexed thoroughly. (S. pneumoniae 1 mL in 10 mL CAMHB+5% lysed horse blood). Columns 1-15 of the 96-well plate were inoculated with 5 μL of this suspension (1-15=antibacterial solution, 16=sterile medium without test item).
(§3) Turbidity was read visually with a mirror.

E. coli ATCC 25922 [2] = assay: Time-kill curves; conditions: E. coli ATCC25922; for growth- and kill rates k ('+' = growth, unmarked = kill rate): first four hours
E. coli GNS-2601 = assay: Time-kill curves; conditions: E. coli GNS2601; for growth- and kill rates k ('+' = growth, unmarked = kill rate): first four hours
[3] = system: S. aureus ATCC 33593 (MRSA); assay: MIC, broth microdilution (CLSI), CAMHB; conditions: Staphylococcus aureus; monosubstance; Sa ATCC33593; read-out: MIC
Method: as §1, §2, §3

S. pneumoniae ATCC 33400 = assay: MIC, broth microdilution (CLSI), CAMHB; conditions: Streptococcus pneumoniae; monosubstance; Spn ATCC33400; read-out: MIC
Method: as §1, §2, §3

E. faecalis V583 (VanB) = assay: MIC, broth microdilution (CLSI), CAMHB; conditions: Enterococcus faecalis; monosubstance; Ef V583; read-out: MIC
Method: as §1, §2, §3

E. coli ATCC 25922 [4] = assay: MIC, broth microdilution (CLSI), CAMHB; conditions: Escherichia coli; monosubstance; Ec ATCC25922; read-out: MIC
Method: as §1, §2, §3

[5] = system: S. pneumoniae BAY 19397 (penicillin-, macrolide-, quinolone-resistant); assay: MIC, broth microdilution (CLSI), CAMHB; conditions: monosubstance; Spn 19397; listed as MCB
Method: as §1, §2, §3

S. aureus ATCC 29213 = assay: MIC, broth microdilution (CLSI), CAMHB; conditions: Staphylococcus aureus; monosubstance; Sa ATCC29213; read-out: MIC
Method: as §1, §2, §3

E. faecalis ATCC 29212 = assay: MIC, broth microdilution (CLSI), CAMHB; conditions: Enterococcus faecalis; monosubstance; Ef ATCC29212; read-out: MIC
Method: as §1, §2, §3

[6] = system: P. aeruginosa NRZ-00425 (VIM-2 β-lactamase); assay: microbe, parasite or virus in culture; conditions: Pseudomonas aeruginosa, checkerboard, read-out: MIC (agent alone)
From the text: (§4) The checkerboard consists of columns in which each well contains the same amount of antibacterial A being over i dilutions along the x-axis, and in rows in which each well contains the same amount of antibacterial B over j dilutions on the y-axis, i.e. serial dilutions of antibacterials A and B, respectively, are titrated in a rectangular fashion.
(§5) The fractional inhibitory concentration (FIC) is a mathematical expression of the effect of the combination of two antibacterial agents A and B. The FICs were calculated as the MIC of antibacterial A and antibacterial B in combination divided by the MIC of antibacterial A or antibacterial B alone.
(§6) The FICs and FIC index, respectively, are calculated according to the following equations:
(§7) FIC(A)=MIC(A in the presence of B)/MIC(A alone)
(§8) FIC(B)=MIC(B in the presence of A)/MIC(B alone)
(§9) The checkerboard titrations were performed three times.

E. coli ATCC 25922 [7] = assay: Checkerboard titration of Compound 1 and colistin; conditions: Escherichia coli, ATCC25922, read-out: MIC (agent alone)
From the text: as §4, §5, §6, §7, §8, §9

E. cloacae ATCC 13047 [8] = assay: Checkerboard titration of Compound 1 and colistin; conditions: Enterobacter cloacae, ATCC13047, checkerboard, read-out: MIC (agent alone)
From the text: as §4, §5, §6, §7, §8, §9

[9] = system: six selected indicator strains; assay: Checkerboard titration, statements on the six indicator strains; conditions: read-out: MIC of Compound 1 alone, checkerboard; strains as worded in the text
From the text: as §4, §5, §9

[10] = system: E. faecium UW 3695 (linezolid and quinolone-resistant); assay: MIC, broth microdilution (CLSI), CAMHB; conditions: Enterococcus faecium; monosubstance; Efc UW3695; read-out: MIC
Method: as §1, §2, §3

[11] = system: E. coli NRZ-00401 (metallo β-lactamase VIM-1); assay: MIC, broth microdilution (CLSI), CAMHB; conditions: Escherichia coli; monosubstance; Ec NRZ00401; read-out: MIC
Method: as §1, §2, §3

E. cloacae ATCC 13047 [12] = assay: MIC, broth microdilution (CLSI), CAMHB; conditions: Enterobacter cloacae; monosubstance; Ecl ATCC13047; read-out: MIC
Method: as §1, §2, §3

K. pneumoniae ATCC 13883 = assay: MIC, broth microdilution (CLSI), CAMHB; conditions: Klebsiella pneumoniae; monosubstance; Kp ATCC13883; read-out: MIC
Method: as §1, §2, §3

[13] = system: S. aureus Visa Mu 50 (MRSA, vancomycin intermediate susceptible); assay: MIC, broth microdilution (CLSI), CAMHB; conditions: Staphylococcus aureus; monosubstance; Sa VisaMu50; read-out: MIC
Method: as §1, §2, §3

[14] = system: S. aureus NRS-119 (MRSA, linezolid- and quinolone-resistant); assay: MIC, broth microdilution (CLSI), CAMHB; conditions: Staphylococcus aureus; monosubstance; Sa NRS119; read-out: MIC
Method: as §1, §2, §3

E. faecium DSMZ 2146 = assay: MIC, broth microdilution (CLSI), CAMHB; conditions: Enterococcus faecium; monosubstance; Efc DSMZ2146; read-out: MIC
Method: as §1, §2, §3

[15] = system: Gram-positive strains tested; assay: MIC testing, statements on the Gram-positive strain panel; conditions: all Gram-positive strains tested; read-out: MIC (inhibitory concentration)
From the text: as §1

[16] = system: E. coli GNS-2601 (ESBL CTX-M-15); assay: MIC, broth microdilution (CLSI), CAMHB; conditions: Escherichia coli; monosubstance; Ec GNS2601; read-out: MIC
Method: as §1, §2, §3

[17] = system: E. coli NRZ-00302 (metallo β-lactamase NDM-1); assay: MIC, broth microdilution (CLSI), CAMHB; conditions: Escherichia coli; monosubstance; Ec NRZ00302; read-out: MIC
Method: as §1, §2, §3

[18] = system: E. coli ATCC 25922, NRZ-00401, NRZ-00302 and GNS-2601; assay: Time-kill curves, statements on the four E. coli strains

CC(=O)NC[C@H]1CN(c2ccc(OCC3(O)CCN(c4cc5c(cc4F)c(=O)c(C(=O)O)cn5C4CC4)CC3)c(F)c2)C(=O)O1 [Compound 1, 7-(4-{4-[(5S)-5-(acetylamino-methyl)-2-oxo-oxazolidin-3-yl]-2-fluoro-phenoxymethyl}-4-hydroxy-piperidin-1-yl)-1-cyclopropyl-6-fluoro-4-oxo-1,4-dihydro-quinoline-3-carboxylic acid]
Viable counts at 8 h of exposure (E. coli NRZ-00302; single agent at 1x its MIC): 8.28 log10 CFU/mL
Viable counts at 8 h of exposure (E. coli NRZ-00302; single agent at 2x its MIC): 5.69 log10 CFU/mL
Viable counts at 8 h of exposure (E. coli NRZ-00401; single agent at 1x its MIC): 6.32 log10 CFU/mL
MIC [1]: 0.03 µg/mL (≈ 0.0479 µM)
Viable counts at 8 h of exposure (E. coli ATCC 25922 [2]; single agent at 1x its MIC): 4.69 log10 CFU/mL
Viable counts at 8 h of exposure (E. coli ATCC 25922 [2]; single agent at 2x its MIC, listed as MCB): 2.61 log10 CFU/mL and 2.62 log10 CFU/mL
Viable counts at 8 h of exposure (E. coli GNS-2601; single agent at 1x its MIC, listed as MCB): 8.34 log10 CFU/mL and 7.34 log10 CFU/mL
Viable counts at 8 h of exposure (E. coli GNS-2601; single agent at 2x its MIC): 6.29 log10 CFU/mL
MIC [3]: 0.03 µg/mL (≈ 0.0479 µM)
MIC (S. pneumoniae ATCC 33400): 0.0075 µg/mL (≈ 0.012 µM)
MIC (E. faecalis V583 (VanB)): 0.03 µg/mL (≈ 0.0479 µM)
MIC (E. coli ATCC 25922 [4]): 16 µg/mL (≈ 25.5 µM)
MIC [5]: 0.0004 µg/mL (≈ 0.000638 µM)
MIC (S. aureus ATCC 29213): 0.25 µg/mL (≈ 0.399 µM)
MIC (E. faecalis ATCC 29212): 0.03 µg/mL (≈ 0.0479 µM)
MIC [6]: 128 to 256 µg/mL

CC(=O)NC[C@H]1CN(c2ccc(OCC3(O)CCN(c4cc5c(cc4F)c(=O)c(C(=O)O)cn5C4CC4)CC3)c(F)c2)C(=O)O1 [Compound 1, 7-(4-{4-[(5S)-5-(acetylamino-methyl)-2-oxo-oxazolidin-3-yl]-2-fluoro-phenoxymethyl}-4-hydroxy-piperidin-1-yl)-1-cyclopropyl-6-fluoro-4-oxo-1,4-dihydro-quinoline-3-carboxylic]
MIC (E. coli ATCC 25922 [7]): 8 to 16 µg/mL
MIC (E. cloacae ATCC 13047 [8]): > 256 µg/mL
MIC [9]: > 256 µg/mL
MIC [10]: 0.06 µg/mL (≈ 0.0958 µM)
MIC [11]: 16 µg/mL (≈ 25.5 µM)
MIC (E. cloacae ATCC 13047 [12]): 128 µg/mL (≈ 204 µM)
MIC (K. pneumoniae ATCC 13883): 128 µg/mL (≈ 204 µM)
MIC [13]: 0.06 µg/mL (≈ 0.0958 µM)
MIC [14]: 1 µg/mL (≈ 1.6 µM)
MIC (E. faecium DSMZ 2146): 0.06 µg/mL (≈ 0.0958 µM)
MIC [15]: < 0.25 µg/mL

C[C@@H]1O[C@@H]1P(=O)(O)O [fosfomycin]
growth- and kill rates k ('+' = growth, unmarked = kill rate) (E. coli NRZ-00302; single agent at 1x its MIC): 1.67 h⁻¹
growth- and kill rates k ('+' = growth, unmarked = kill rate) (E. coli NRZ-00302; single agent at 2x its MIC): 2.09 h⁻¹
Viable counts at 8 h of exposure (E. coli NRZ-00302; single agent at 1x its MIC): 2.78 log10 CFU/mL
Viable counts at 8 h of exposure (E. coli NRZ-00302; single agent at 2x its MIC): 1.30 log10 CFU/mL
growth- and kill rates k ('+' = growth, unmarked = kill rate) (E. coli NRZ-00401; single agent at 1x its MIC): +0.40 h^−1
growth- and kill rates k ('+' = growth, unmarked = kill rate) (E. coli NRZ-00401; single agent at 2x its MIC): +0.32 h^−1
Viable counts at 8 h of exposure (E. coli NRZ-00401; single agent at 1x its MIC): 7.95 log10 CFU/mL
Viable counts at 8 h of exposure (E. coli NRZ-00401; single agent at 2x its MIC): 6.65 log10 CFU/mL
growth- and kill rates k ('+' = growth, unmarked = kill rate) (E. coli ATCC 25922 [2]; single agent at 1x its MIC): +0.68 h^−1
growth- and kill rates k ('+' = growth, unmarked = kill rate) (E. coli ATCC 25922 [2]; single agent at 2x its MIC): +0.72 h^−1
Viable counts at 8 h of exposure (E. coli ATCC 25922 [2]; single agent at 1x its MIC): 8.95 log10 CFU/mL
Viable counts at 8 h of exposure (E. coli ATCC 25922 [2]; single agent at 2x its MIC): 8.59 log10 CFU/mL
growth- and kill rates k ('+' = growth, unmarked = kill rate) (E. coli GNS-2601; single agent at 1x its MIC): 1.21 h⁻¹
growth- and kill rates k ('+' = growth, unmarked = kill rate) (E. coli GNS-2601; single agent at 2x its MIC): 1.85 h⁻¹
Viable counts at 8 h of exposure (E. coli GNS-2601; single agent at 1x its MIC): 5.08 log10 CFU/mL
Viable counts at 8 h of exposure (E. coli GNS-2601; single agent at 2x its MIC): 3.45 log10 CFU/mL
MIC [11]: 2 µg/mL (≈ 14.5 µM)
MIC (E. coli ATCC 25922 [4]): 2 µg/mL (≈ 14.5 µM)
MIC [16]: 64 µg/mL (≈ 464 µM)
MIC [17]: 64 µg/mL (≈ 464 µM)
type of activity in time-kill ([18]; strains ATCC 25922, NRZ-00401): bacteriostatically
type of activity in time-kill ([18]; strains NRZ-00302 and GNS-2601): bactericidal
